One data set concerns Paecilomyces variotii. In words: Antifungal susceptibility against filamentous fungi, broth microdilution. The class given is cell-based. The protocol:
(§1) In this set of experiments, Candida krusei ATCC 6258 and amphotericin B were used to perform quality control tests for validation. As mentioned above, the test medium used was RPMI-1640 broth with MOPS buffer. Tests were performed in U-shaped 96-well plates in triplicates and the OD450nm was recorded after 7 days of incubation at 30°C. The fungi tested were Rhizopus stolonifer IMI 017314 and Paecilomyces variotii and Byssochamys fulva IMI 040021.
(Broth dilution looks for growth in wells or tubes with falling amounts of substance.)

The subject of data set [1] is Rhizopus stolonifer IMI 017314. The description is as above. In kind it is cell-based. Here is the method:
as §1

Data set [2] relates to Byssochamys fulva IMI 040021. The data set is described as above. In kind it is cell-based, Byssochlamys fulva. The protocol:
as §1

In the next data set the test system is Candida krusei ATCC 6258. As to the kind of experiment: Antifungal susceptibility against yeast, broth microdilution in RPMI-1640. As to conditions: for MIC: Pichia kudriavzevii, ATCC6258, C. krusei, RPMI-1640 liquid media. The class given is cell-based. The protocol: The antifungal susceptibility test against yeasts was performed according to the broth microdilution method, as described previously ([Urbañski et al., 2002]; [Schwalbe et al., 2007]). Candida krusei ATCC 6258 was used as the quality control organism, to verify that antifungal concentrations were prepared properly. In addition, amphotericin B, an effective antifungal antibiotic produced by Streptomyces nodosus and part of the WHO List (World Health Organization) of Essential Medicines, was used as a reference compound. The test medium used was RPMI-1640 (with glutamine, without bicarbonate and with a pH indicator) broth with [3-(N-morpholino)]-propanesulfonic acid (MOPS) buffer. All tests were performed in U-shaped 96-well plates. Three technical replicates of each assay were carried out on the same day with the same culture and chemical compound with the aforementioned experiment repeated also in triplicate on different days using different cultures (biological replicates) resulting in a total of nine replicates for each assay. The yeasts tested were Zygosaccharomyces bailli NCYC 464 and Debaryomyces hansenii NCYC 102.

In another data set the test system is Bacillus cereus MR59. As to the kind of experiment: Antibacterial susceptibility, broth microdilution MIC. In kind it is cell-based. As to conditions: 24 h. The protocol:
(§2) The antibacterial susceptibility testing was performed following the broth microdilution methodology, as described previously ([Schwalbe et al., 2007]), against both Gram-negative and Gram-positive foodborne pathogens and spoilage bacteria. The bacteria used were: Pseudomonas aeruginosa NCTC 10332, Salmonella enterica NCTC 5188, Escherichia coli K-12, Bacillus cereus MR59, Listeria monocytogenes 10403S, Carnobacterium divergens NCFB 2763, Leuconostoc mesenteroides NCIMB 08023, and Brochothrix thermosphacta NCDO 1676.
(§3) Two-fold dilutions were performed and 100 μL of each dilution was placed in each column of a flat bottomed 96-well plate. One column of the plate contained only the growth medium and served as the positive control while in another column contained 200 μL of the growth medium with the highest concentration of the lipopeptide tested (1,000 mg/L) and served as the negative control. Apart from the column that served as the negative control, the rest of the wells were inoculated with 100 μL of the bacterial culture tested. For the bacterial suspension preparation, cultures were incubated overnight in the appropriate medium (MHB or TSB). Bacterial density was adjusted to 0.5 McFarland and suspensions were subsequently diluted 1000 times using the growth test medium. The 96-well plates were then incubated at either 30or 37°C, depending on the optimal growth temperature of each microorganism, for 24 h and the OD620nm was assessed. The minimum inhibitory concentration (MIC) was defined as the lowest concentration of the antimicrobial agent tested that prevented any discernible growth after 24 h incubation.

For data set [3], the system named is Listeria monocytogenes 10403S. The description is as above. In kind it is cell-based. As to conditions: L. monocytogenes, 24 h. Here is the method: as §2, §3
Data set [4] concerns Brochothrix thermosphacta NCDO 1676. The data set is described as above. In kind it is cell-based. Conditions: food preservatives, 24 h. The protocol: as §2, §3
The next data set relates to Escherichia coli K-12. The description is as above. In kind it is cell-based. As to conditions: E. coli K-12, broth microdilution, 24 h. The protocol: as §2, §3
Data set [5] has as its system Carnobacterium divergens NCFB 2763. Described as above. In kind it is cell-based. Conditions: C. divergens. Here is the method:
as §2, §3

For data set [6], the system named is Leuconostoc mesenteroides NCIMB 08023. The description is as above. The class given is cell-based. Conditions: 24 h. Here is the method:
as §2, §3

Data set [7] relates to Pseudomonas aeruginosa NCTC 10332. The data set is described as above. In kind it is cell-based. Conditions: 24 h. Here is the method: as §2, §3
A further data set relates to Gram-positive bacteria. In words: Antibacterial broth microdilution MIC, summary over Gram-positive strains. The class given is cell-based. As to conditions: range over the Gram-positive strains; read-out: MICs for Gram-positive bacteria.
The subject of data set [8] is Salmonella enterica NCTC 5188. In words: Antibacterial susceptibility, broth microdilution MIC. The class given is cell-based. As to conditions: NCTC5188, S. enterica, 24 h.
Data set [9] has as its system Caco-2 cells. As to conditions: cited from earlier work; for IC50 cytotoxicity group, Caco cells: published IC50, MTT, ref literature review and EFSA database (Figure 4); for IC50: Caco-2 cells, ref Zhao et al.
The subject of the next data set is Vero cells. As to conditions: cited from earlier work; for IC50 cytotoxicity group, Vero cells: published IC50, MTT, ref literature review and EFSA database (Figure 4).
For the next data set, the system named is Vero SF cells. In words: Cytotoxicity assay (CCK8, WST-8). The protocol: The Vero SF cells line is recommended by EFSA to assess the toxigenic potential of Bacillus species used in animal nutrition ([EFSA, 2014]). Cells were cultured in Dulbecco’s modified Eagle’s medium supplemented with 10% FCS, 1% glutamine, and 1% penicillin-streptomycin. After 48 h, cell culture medium was replaced by fresh medium containing the tested compounds in various concentrations.
Cytotoxicity was determined through a commercial kit from SIGMA Aldrich (Saint-Louis, United States) named Cell Counting kit 8 (CCK8). This test is based on the water-soluble tetrazolium salt (WST-8) reduction by the dehydrogenase of the living cells only inducing the production of a yellow color formazan dye which is directly proportional to the number of cells. Twenty-four hours after addition the compounds, the WST-8 was added to the medium (100 μL/mL). After 2h incubation, absorption at […] was measured in a microplate-reader (Microplates reader SpectraMax® iD3, Molecular Devices, San Jose, United States) and values were expressed as percent of control.
As explained above, since some of the lipopeptides have limited solubility in aqueous solutions, prior to their cytotoxicity testing, the effect of the DMSO at the levels used to solubilize the lipopeptides, was assessed. […]

Another data set has as its system R. stolonifer. Set-up: method as in Liu et al., 2014. As to conditions: ref Liu et al., 2014; cited from earlier work.
Data set [10] concerns Caco-2 cells.
In a further data set the test system is C. divergens. As to the kind of experiment: Nisin-lipopeptide combinations, broth microdilution checkerboard panel. The class given is cell-based, Carnobacterium divergens. As to conditions: regardless of the surfactin concentrations; data not shown. From the text:
For testing the antibacterial activity by combining nisin and lipopeptides, the broth microdilution assay described above was used, following the broth microdilution checkerboard panel ([Schwalbe et al., 2007]).

Data set [11] deals with Caco-2 cells. As to the kind of experiment: Cytotoxicity assay (CCK8, WST-8). As to conditions: estimated IC50 of this study, 24 h of contact.
The test system of a further data set is Escherichia coli. Also on record: method as in Dhanarajan et al., 2016. As to conditions: purified surfactin homologues; ref Dhanarajan et al., 2016; cited from earlier work.
The mark [12] stands for this setting: nisin alone, lipopeptide alone, or lipopeptide with nisin at fixed 10 mg/L.

≈ marks a conversion by molar mass, not a printed value. Where “and” joins values, the source holds several entries; their conditions need not be identical. Equal values may be shown once. Read-outs that look alike come from different tables or passages of the source.

Usually IC50 stands for the concentration that inhibits the measured activity by half.

On to `C[C@@H]1[C@H](O)[C@@H](C)/C=C/C=C/C=C/C=C/C=C/C=C/C=C/[C@H](O[C@@H]2O[C@H](C)[C@@H](O)[C@H](N)[C@@H]2O)C[C@@H]2O[C@](O)(C[C@@H](O)C[C@@H](O)[C@H](O)CC[C@@H](O)C[C@@H](O)CC(=O)O[C@H]1C)C[C@H](O)[C@H]2C(=O)O` [Amphotericin B, amphotericin B], for which the MIC turned out to be 0.06 µg/mL (≈ 0.0649 µM) with Paecilomyces variotii (Paecilomyces variotii, 168 h, 7 days of growth, RPMI-1640 liquid media, read-out: P. variotii MIC); 0.5 µg/mL (≈ 0.541 µM) in data set [1] (Rhizopus stolonifer, IMI017314, 168 h, 7 days of growth, RPMI-1640 liquid media, read-out: R. stolonifer MIC); 0.06 µg/mL (≈ 0.0649 µM) in data set [2] (Paecilomyces fulvus, IMI040021, 168 h, 7 days of growth, RPMI-1640 liquid media, read-out: B. fulva MIC); 0.5 mg/L (≈ 0.541 µM) in the data set on Candida krusei ATCC 6258 (24 h growth, read-out: MIC (mg/L) 24h); 0.5 mg/L (≈ 0.541 µM) in the data set with Candida krusei ATCC 6258 (48 h growth, read-out: MIC (mg/L) 48h).
With `O=C(O)CN(CCN(CC(=O)O)CC(=O)O)CC(=O)O` [EDTA, ethylenediaminetetraacetic acid], the MIC in the data set with Bacillus cereus MR59 (Bacillus cereus, MR59, B. cereus, read-out: MIC) was determined as 228 µg/mL (≈ 780 µM); in [3] (Listeria monocytogenes, 10403S, read-out: MIC), 228 µg/mL (≈ 780 µM); in [4] (Brochothrix thermosphacta, NCDO1676, B. thermosphacta, read-out: MIC), 114 µg/mL (≈ 390 µM); in the data set with Escherichia coli K-12 (Escherichia coli, K12, read-out: MIC) it was 14600 µg/mL (≈ 50000 µM); in data set [5] (Carnobacterium divergens, NCFB2763, food preservatives, broth microdilution, 24 h, read-out: MIC), 55.6 µg/mL; in data set [6] (Leuconostoc mesenteroides, NCIMB08023, L. mesenteroides, read-out: MIC), 114 µg/mL (≈ 390 µM). Moreover, the MIC in data set [7] (Pseudomonas aeruginosa, NCTC10332, P. aeruginosa, read-out: MIC) is 7310 µg/mL (≈ 25000 µM); with Gram-positive bacteria, 190 µM to 780 µM and 55.6 µg/mL to 228 µg/mL; in data set [8] it was 14600 µg/mL (≈ 50000 µM).
As to `Cc1ccc(C(C)C)cc1O` [carvacol], the “IC50 cytotoxicity group, Caco cells” value with Caco-2 cells [9] is “group 2 (group 2 with moderate cytotoxicity with IC50s between 10 and 100 mg/L)”. Also, the “IC50 cytotoxicity group, Vero cells” value in the data set with Vero cells was “group 2 (group 2 with moderate cytotoxicity with IC50s between 10 and 100 mg/L)”.
With `C=O` [formaldehyde (E240), formaldehyde], the “IC50 cytotoxicity group, Caco cells” value in the data set with Caco-2 cells [9] was “group three (group three with significant cytotoxicity with IC50 lower than 10 mg/L)”. In the data set with Vero cells, the “IC50 cytotoxicity group, Vero cells” value is “group 3 (group three with significant cytotoxicity with IC50 lower than 10 mg/L)”.
In the case of fengycin [Fengycin (F)], in the data set with Vero SF cells, the “cytotoxicity compared to nisin (E234)” value is “less cytotoxic”.
Regarding iturin, the “concentration at which growth of R. stolonifer is inhibited” value with R. stolonifer is recorded as 100 mg/L.
For the molecule iturin A, the IC50 in the data set with Caco-2 cells [9] (2018) is 42 µg/mL; in the data set on Caco-2 cells [9] (2019), 28 µg/mL; with Vero cells (Vero cells, ref EFSA Panel on Additives and Products or Substances used in Animal Feed [FEEDAP], 2017), “around 16 mg/L”. For the same molecule, in the data set on Caco-2 cells [9], the “IC50 cytotoxicity group, Caco cells” value is “group 2 (group 2 with moderate cytotoxicity with IC50s between 10 and 100 mg/L)”. Further, in the data set on Vero cells, the “IC50 cytotoxicity group, Vero cells” value was “group 2 (group 2 with moderate cytotoxicity with IC50s between 10 and 100 mg/L)”.
In the case of mycosubtilin, the “cytotoxicity compared to nisin (E234)” value in the data set on Caco-2 cells [10] was “three times less cytotoxic”.
nisin: in the data set on C. divergens, the “MIC of nisin for C. divergens when combined with surfactin” value is 3.35 µg/mL. Also, the “IC50 cytotoxicity group, Caco cells” value in the data set with Caco-2 cells [11] is reported as “group three (group three with significant cytotoxicity with IC50 lower than 10 mg/L)”. Besides, the MIC was 6.71 µg/mL in the data set on Bacillus cereus MR59 (B. cereus); 6.71 µg/mL in data set [3]; 0.10 to 0.20 µg/mL in data set [4] (B. thermosphacta); above 107.3 µg/mL with Escherichia coli K-12; 3.35 µg/mL in data set [5] (food preservatives, broth microdilution, 24 h); 1000 µM in data set [5] (nisin). Besides, the MIC was 1.68 µg/mL in data set [6] (L. mesenteroides) and above 107.3 µg/mL in [7] (P. aeruginosa). The “Lipopeptide MIC (mg/L) P. variotii” value with Paecilomyces variotii (setting [12]) is on record as above 125 mg/L. In addition, the “Lipopeptide MIC (mg/L) R. stolonifer” value in [1] (setting [12]) is reported as above 125 mg/L. The “IC50 cytotoxicity group, Vero cells” value in the data set with Vero SF cells (estimated IC50 of this study, 24 h of contact) was “group 1 (group 1 of molecules with low cytotoxicity, IC50 above 100 mg/L)”. Besides, in data set [2] (setting [12]), the “Lipopeptide MIC (mg/L) B. fulva” value is listed as above 125 mg/L. Further, the “Lipopeptide MIC (mg/L) C. krusei” value with Candida krusei ATCC 6258 (setting [12]) was above 125 mg/L.
As to surfactin C15, in the data set on Escherichia coli, the MICs was 60 mg/L.

The record behind these values is publication PMC7829355, “Antimicrobial Activity of Lipopeptide Biosurfactants Against Foodborne Pathogen and Food Spoilage Microorganisms and Their Cytotoxicity” (Frontiers in Microbiology, 2021).
